In patent publication US11384312B2, “Fragrance compositions and methods of use thereof” (TAKASAGO INTERNATIONAL CORPORATION, priority 2016, dated 2022):

What was measured:
salivary alpha-amylase = assay: Timed mathematical and word stress test in panelists exposed to fragrance compound; salivary alpha-amylase before vs after stress; format: in vivo, human; conditions: panelists' saliva, before vs immediately after stress test; single fragrance compound in DPG solvent; DPG control 51.9%
Description: (§1) Stress was induced in each panelist using a timed mathematical and word test, which was administered to panelists in a small group competition setting to induce stress in each of the panelists. At set time intervals during the test, each panelist was exposed to either a single fragrance compound or to a DPG control.
(§2) Saliva was collected for each panelist before and immediately after the stress test. Saliva samples were assayed for salivary alpha-amylase activity and salivary cortisol levels using a commercially available assay kit (e.g., Salimetrics).
(§3) Table 1-A summarizes the percent change (i.e., before stress versus after stress) in the salivary alpha-amylase levels of panelists exposed to fragrance compounds of the present disclosure during the stress test. In addition, the table illustrates the statistical significance of the change in alpha-amylase levels (i.e., p-value or probability value, P) of each of the fragrance compounds as compared to DPG, representing the change in the control (i.e., just DPG without a fragrance compound before stress and after stress).

salivary cortisol = assay: Timed mathematical and word stress test in panelists exposed to fragrance compound; salivary cortisol before vs after stress; format: in vivo, human; conditions: panelists' saliva, before vs immediately after stress test; single fragrance compound in DPG solvent; DPG control 10.8%
Description: as §1, §2
as §3, with “Table 1-B” for “Table 1-A”, “salivary cortisol” for “salivary alpha-amylase”, “in salivary cortisol” for “in alpha-amylase”

| Compound | % Change in Alpha-amylase (i.e., before versus after stress) (salivary alpha-amylase) | % Change in Cortisol (i.e., before versus after stress) (salivary cortisol) |
| --- | --- | --- |
| CC(=O)O[C@@H]1C[C@@H]2CC[C@@]1(C)C2(C)C [Bornyl Acetate, L] | 27.1% | −13.0% |
| C=CC(C)CCCC(C)(C)OC(C)=O (stereo not shown) [Dihydromyrcenyl Acetate] | −3.9% | −13.3% |
| CC12CCC(CC1=O)C2(C)C (stereo not shown) [Camphor] | −11.6% | −2.2% |
| CC(C=O)Cc1ccc(C(C)C)cc1 (stereo not shown) [3-(4-isopropylphenyl)-2-methylpropanal] | 4.8% | 17.73% |
| CC1(O)CCC2C(=CCCC2(C)C)C1 (stereo not shown) [2,5,5-trimethyl-1,3,4,4a,6,7-hexahydronaphthalen-2-ol] | 5.1% | 30.0% |
| CC(C)=CCCC(C)CCO (stereo not shown) [Citronellol] | 1.2% | 3.4% |
| CC(C)=CCCC(C)CC=O (stereo not shown) [Citronellal] | 4.9% | 16.8% |
| C=CC(=C)CCCC(C)(C)OC(C)=O [Myrcenyl Acetate] | 15.8% | −6.9% |
| CC(=O)OC1CCCCC1C(C)(C)C (stereo not shown) [2-tert-butylcyclohexyl acetate] | −4.3% | −14.2% |
| CC(C)(C)C1CCC(=O)C(C(C)(C)C)C1 (stereo not shown) [2,4-di(tert-butyl)-cyclohexan-1-one] | 10.9% | 8.3% |
| (1,7,7-trimethylbicyclo[2.2.1]hept-2-yl)-cyclohexanol | 3.8% | 1.0% |
| C=CC(C)CCC=C(C)C (stereo not shown) [Dihyrdomyrcene] | 23.6% | −8.1% |
| CC(C)=CCCC(C)=CC=O [Citral] | 7.5% | −2.8% |
| CC(=O)C1(C)CC2=C(CCCC2(C)C)CC1C (stereo not shown) [1-(1,2,3,4,5,6,7,8-octahydro-2,3,8,8,-tetramethyl-2-naphthyl)ethan-1-one] | −2.5% | −11.9% |
| COC(=O)OC1CCC=CCCC1 (stereo not shown) [1-cyclooct-4-enyl methyl carbonate] | 15.2% | 3.5% |
| CC1(C)CCC[C@]2(C)[C@H]3CCO[C@]3(C)CC[C@@H]12 [Ambroxide] | −12.2% | 1.1% |
| CC12CCC(CC1)C(C)(C)O2 [Eucalyptol] | −11.1% | −12.87% |
